# Data reported in US5391540A, “Substituted pyridine compounds” (Rohm and Haas Company, priority 1993, dated 1995).
# Assays:
# Assay type in all cases: in vivo
# Cobu = assay: plant injury after spraying emerged plants (Table D); design: scale not given here
# Excerpt: (§1) Topsoil (silt loam) is sieved through a screen having 1.27 cm openings. […] This mixture is steam sterilized and then placed in aluminum pans 6.985 cm deep having ten holes in the bottom each 0.635 cm in diameter. The soil mixture is compacted to a depth of 1.27 cm. from the top of the pan. A predetermined number of seeds of each of several dicotyledonous and monocotyledonous annual plant species and/or vegetative propagules for the perennial plant species are placed on the soil and pressed into the soil surface. The seeds and/or vegetative propagules are covered with 1.27 cm of a mixture of 50% topsoil and 50% of a mixture of Canadian sphagnum peat moss, vermiculite and a wetting agent. The pans are then placed on a capillary mat on a greenhouse bench and subirrigated as needed.
# (§2) In the following Table D the legends used to identify the plant species are the same as those used in the preceding Table B.
# Grso = assay: as above; design: scale not given here
# Excerpt: as §1, §2
# Rice = assay: as above; design: scale not given here
# Excerpt: as §1, §2
# Corn = assay: as above; design: scale not given here
# Excerpt: as §1, §2
# Mogl = assay: as above; design: scale not given here; conditions: 1.1210 kg/ha
# Excerpt: as §1, §2
# Lacg = assay: as above; design: scale not given here
# Excerpt: as §1, §2
# Bygr = assay: as above; design: scale not given here
# Excerpt: as §1, §2
# Grft = assay: as above; design: scale not given here
# Excerpt: as §1, §2
# Prmi = assay: as above; design: scale not given here
# Excerpt: as §1, §2
# Whez = assay: as above; design: scale not given here
# Excerpt: as §1, §2
# Sobe = assay: as above; design: scale not given here
# Excerpt: as §1, §2
# Cocklebur = assay: Pre-emergent herbicidal activity (Table A); conditions: Xanthium strumarium, pre-emergence, Cobu, 11.2 kg/ha, 10-14 days, read-out: herbicidal rating (% inhibition)
# Method in brief: (§3)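 Seeds or vegetative propagules were set on topsoil compacted to 0.95 to 1.27 cm below the pan rim, then covered with soil thoroughly mixed with a known amount of test compound in acetone or water carrier. Ratings follow a scale of percent inhibition per species.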
# Velvetleaf = assay: Pre-emergent herbicidal activity (Table A); conditions: Abutilon theophrasti, pre-emergence, Vele, 11.2 kg/ha, 10-14 days, read-out: herbicidal rating (% inhibition)
# Method in brief: as §3
# Morningglory = assay: Pre-emergent herbicidal activity (Table A); conditions: Ipomoea, pre-emergence, Mogl, 11.2 kg/ha, 10-14 days, read-out: herbicidal rating (% inhibition)
# Method in brief: as §3
# Downy Brome = assay: Pre-emergent herbicidal activity (Table A); conditions: Bromus tectorum, pre-emergence, Dobr, 11.2 kg/ha, 10-14 days, read-out: herbicidal rating (% inhibition)
# Method in brief: as §3
# Barnyardgrass = assay: Pre-emergent herbicidal activity (Table A); conditions: Echinochloa crus-galli, pre-emergence, Bygr, 11.2 kg/ha, 10-14 days, read-out: herbicidal rating (% inhibition)
# Method in brief: as §3
# Yellow Nutsedge = assay: Pre-emergent herbicidal activity (Table A); conditions: Cyperus, pre-emergence, Yens, 11.2 kg/ha, 10-14 days, read-out: herbicidal rating (% inhibition)
# Method in brief: as §3
smiles,measurement,setting,value
"COC(=O)c1c(O)nc(C(F)(F)F)c(C(=O)OC)c1CC(C)C [Compound 1, 3,5-pyridinedicarboxylic acid, 2-hydroxy-4-(2-methylpropyl)-6-(trifluoromethyl)-, dimethyl ester]","plant injury rating, Cobu",Cobu; 0.0701 kg/ha,0
same,"plant injury rating, Cobu",Cobu; 0.2803 kg/ha,0
same,"plant injury rating, Cobu",Cobu; 1.1210 kg/ha,0
same,"plant injury rating, Cobu",Cobu; 5.3808 kg/ha,4
same,"plant injury rating, Grso",Grso; 0.0701 kg/ha,0
same,"plant injury rating, Grso",Grso; 0.2803 kg/ha,0
same,"plant injury rating, Grso",Grso; 1.1210 kg/ha,0
same,"plant injury rating, Rice",Rice; 0.0701 kg/ha,0
same,"plant injury rating, Rice",Rice; 0.2803 kg/ha,0
same,"plant injury rating, Rice",Rice; 1.1210 kg/ha,0
same,"plant injury rating, Corn",Corn; 0.0701 kg/ha,0
same,"plant injury rating, Corn",Corn; 0.2803 kg/ha,0
same,"plant injury rating, Corn",Corn; 1.1210 kg/ha,2
same,"plant injury rating, Corn",Corn; 5.3808 kg/ha,2
same,"plant injury rating, Mogl",Mogl,1
same,"plant injury rating, Lacg",Lacg; 0.0701 kg/ha,3
same,"plant injury rating, Lacg",Lacg; 1.1210 kg/ha,3
same,"plant injury rating, Lacg",Lacg; 5.3808 kg/ha,3
same,"plant injury rating, Bygr",Bygr; 0.0701 kg/ha,0
same,"plant injury rating, Bygr",Bygr; 1.1210 kg/ha,1
same,"plant injury rating, Grft",Grft; 0.0701 kg/ha,0
same,"plant injury rating, Grft",Grft; 0.2803 kg/ha,0
same,"plant injury rating, Prmi",Prmi; 0.0701 kg/ha,0
same,"plant injury rating, Prmi",Prmi; 0.2803 kg/ha,0
same,"plant injury rating, Prmi",Prmi; 1.1210 kg/ha,2
same,"plant injury rating, Prmi",Prmi; 5.3808 kg/ha,3
same,"plant injury rating, Whez",Whez; 0.0701 kg/ha,0
same,"plant injury rating, Whez",Whez; 0.2803 kg/ha,0
same,"plant injury rating, Whez",Whez; 1.1210 kg/ha,0
same,"plant injury rating, Whez",Whez; 5.3808 kg/ha,0
same,"plant injury rating, Sobe",Sobe; 0.2803 kg/ha,2
same,"plant injury rating, Sobe",Sobe; 1.1210 kg/ha,1
same,"plant injury rating, Sobe",Sobe; 5.3808 kg/ha,3
same,inhibition at 11200 g/ha,Cocklebur,0 to 24%
same,inhibition at 11200 g/ha,Velvetleaf,0 to 24%
same,inhibition at 11200 g/ha,Morningglory,0 to 24%
same,inhibition at 11200 g/ha,Downy Brome,0 to 24%
same,inhibition at 11200 g/ha,Barnyardgrass,0 to 24%
same,inhibition at 11200 g/ha,Yellow Nutsedge,0 to 24%
